# Reference: US8580790B2, “(Heterocycle/condensed piperidine)-(piperazinyl)-1-alkanone or (heterocycle/condensed pyrrolidine)-(piperazinyl)-1-alkanone derivatives and use thereof as p75 inhibitors” (Sanofi, priority 2009, dated 2013)
# Biological target: T1, human p75^NTR receptor (Homo sapiens, UniProt P08138)
# T1 construct: the whole form of the human p75^NTR receptor; expressed in transfected cells; the soluble AP fusion comes from the supernatant of transiently transfected HEK293 cells
# T1 sequence (P08138 29-427): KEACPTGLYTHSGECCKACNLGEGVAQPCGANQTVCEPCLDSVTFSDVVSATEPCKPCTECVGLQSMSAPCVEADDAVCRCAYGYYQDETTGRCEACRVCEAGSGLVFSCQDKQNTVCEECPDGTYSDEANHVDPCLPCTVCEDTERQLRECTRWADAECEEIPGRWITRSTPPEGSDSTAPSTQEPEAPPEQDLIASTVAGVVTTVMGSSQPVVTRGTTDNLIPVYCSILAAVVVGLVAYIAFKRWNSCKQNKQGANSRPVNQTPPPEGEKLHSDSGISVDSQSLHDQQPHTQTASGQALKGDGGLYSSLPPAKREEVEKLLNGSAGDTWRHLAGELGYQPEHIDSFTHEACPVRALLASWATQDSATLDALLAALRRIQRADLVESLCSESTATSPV
# Test: Dimerization of the p75NTR receptor independently of its ligand (soluble p75NTR-alkaline phosphatase binding to SK-N-BE Bep 75 cells)
# Format: cell-based
# Conditions: soluble p75NTR-alkaline phosphatase 10 nM, 1 h preincubation at 37° C.
# Procedure: (§1) The SK-N-BE parent strain (human neuroblastoma) and the Bep 75 clone, stably expressing the whole form of the human p75^NTR receptor (SK-N-BE Bep 75) are cultured conventionally in an RPMI culture medium containing FCS (5%), sodium pyruvate (1 mM) and glutamine (4 mM). For the SK-N-BE Bep 75 cells, hygromycin ([…] of medium) is added as selection agent.
# Study of the dimerization of the p75^NTR receptor independently of its ligand.
# The p75^NTR receptor dimerization study is carried out on a cell suspension of the SK-N-BE Bep 75 strain. The cells (2.5×10^4 cells/well) are placed in wells (96-well plate) for 24 h, and then preincubated for 1 h at 37° C. in the presence or absence of the compounds according to the invention. Supernatant is then added, this supernatant being derived from the culture of HEK293 human cells of renal origin expressing, after 48 h of transfection, and secreting a soluble form of the p75^NTR receptor (extracellular part of the receptor) coupled to an alkaline phosphatase, at the final concentration of 10 nM. The quantification of the specific binding of the soluble p75^NTR receptor to the receptor present on SK-N-BE Bep 75 cells is determined by measuring the alkaline phosphatase enzyme activity after incubation of the cells for 1 hour at 37° C. in the presence of the supernatant. After filtration and transfer of the filters into 24-well plates, the alkaline phosphatase activity is determined by adding CDP-Star chemiluminescent substrate (ready-to-use, Roche). The concentrations inhibiting 50% (Cl50) of the dimerization of the p75^NTR receptor, of the compounds according to the invention, are low and range from 10^−6 to 10^−11M.
row,SMILES,IC50
1,"C[C@@H]1CN(c2ccc(C(F)(F)F)cn2)C[C@H](C)N1CC(=O)N1CCc2nc(-c3ccccc3)sc2C1 [compound 9, 2-[(2S,6R)-2,6-dimethyl-4-(5-trifluoromethylpyridin-2-yl)piperazin-1-yl]-1-(2-phenyl-6,7-dihydro-4H-thiazolo[5,4-c]pyridin-5-yl)ethanone]",0.73 nM
2,"COC(=O)c1ccc(N2C3CCC2CN(CC(=O)N2CCc4nn(-c5ccccc5)cc4C2)C3)nc1 [compound 19, 6-{3-[2-oxo-2-(2-phenyl-2,4,6,7-tetrahydropyrazolo[4,3-c]pyridin-5-yl)ethyl]-3,8-diazabicyclo[3.2.1]oct-8-yl}nicotinic acid methyl ester]",14 nM
3,"O=C(O)c1ccc(N2C3CCC2CN(CC(=O)N2CCc4nn(-c5ccccc5)cc4C2)C3)nc1 [compound 24, 6-{3-[2-oxo-2-(2-phenyl-2,4,6,7-tetrahydropyrazolo[4,3-c]pyridin-5-yl)ethyl]-3,8-diazabicyclo[3.2.1]oct-8-yl}nicotinic acid]",1.55 nM

# Tested on: human neuroblastoma strains SH-SY-5Y and SK-N-BE Bep 75
# Test: Measurement of NGF-induced apoptosis (cell death detection ELISA)
# Format: cell-based
# Conditions: SH-SY5Y, NGF 10 ng/ml, 48 h (SH-SY-5Y) or 24 h (SK-N-BE Bep 75), read-out: IC50 of inhibitory activity on NGF-induced apoptosis
# Procedure: The SH-SY-5Y strain (human neuroblastoma) is cultured conventionally in a DMEM culture medium (Dulbecco's Modified Eagle's Medium) (Gibco BRL, France) containing FCS (5%) (foetal calf serum) (Boehringer Mannheim, Germany), sodium pyruvate (1 mM) and glutamine (4 mM) in culture flasks coated with collagen (Becton Dickinson, France).
# as §1
# The cells (human neuroblastoma strains SH-SY-5Y and SK-N-BE Bep 75) are placed in 35 mm diameter Petri dishes (Biocoat collagen I, (10^5 cells/well)) in an appropriate culture medium containing 5% of FCS, for 24 h. […] The degrees of apoptosis are measured 48 hours after the treatments in the case of the SH-SY-5Y strain, and 24 hours after in the case of the SK-N-BE Bep 75 strain, by quantification of the DNA fragment-associated cytoplasmic histones (cell death detection ELISA, Boehringer Mannheim, Germany). The degrees of apoptosis are expressed as amount of oligonucleosomes/10^5 cells. […]
row,SMILES,IC50
1,"C[C@@H]1CN(c2ccc(C(F)(F)F)cn2)C[C@H](C)N1CC(=O)N1CCc2nc(-c3ccccc3)sc2C1 [compound 9, 2-[(2S,6R)-2,6-dimethyl-4-(5-trifluoromethylpyridin-2-yl)piperazin-1-yl]-1-(2-phenyl-6,7-dihydro-4H-thiazolo[5,4-c]pyridin-5-yl)ethanone]",0.72 nM

# Tested on: not given
# Test: not given
# Conditions: not given
row,melting point,SMILES
1,190 to 192 °C,"O=C(CN1CCN(c2ccc(C(F)(F)F)cn2)C(=O)C1)N1CCc2nc(-c3ccc(F)cc3)[nH]c2C1 [compound 120, 4-{2-[2-(4-fluorophenyl)-3,4,6,7-tetrahydroimidazo[4,5-c]pyridin-5-yl]-2-oxoethyl}-1-(5-trifluoromethylpyridin-2-yl)piperazin-2-one]"
2,145 to 147 °C,"C[C@@H]1CN(c2ccc(C(F)(F)F)cn2)C[C@H](C)N1CC(=O)N1CCc2nc(-c3ccc(F)cc3)[nH]c2C1 [compound 124, 2-[(2S,6R)-2,6-dimethyl-4-(5-trifluoromethylpyridin-2-yl)piperazin-1-yl]-1-[2-(4-fluorophenyl)-3,4,6,7-tetrahydroimidazo[4,5-c]pyridin-5-yl]ethanone]"
3,174 to 175 °C,"O=C(CN1CC2CC1CN2c1ccc(C(F)(F)F)cn1)N1CCc2nn(-c3ccccc3)cc2C1 (stereo not shown) [compound 127, 1-(2-phenyl-2,4,6,7-tetrahydropyrazolo[4,3-c]pyridin-5-yl)-2-[5-(5-trifluoromethylpyridin-2-yl)-2,5-diazabicyclo[2.2.1]hept-2-yl]ethanone]"
4,203 to 204 °C,"C[C@@H]1CN(c2ccc3ccccc3n2)C[C@H](C)N1CC(=O)N1CCc2nn(-c3ccccc3)cc2C1 [compound 129, 2-((2S,6R)-2,6-dimethyl-4-quinolin-2-ylpiperazin-1-yl)-1-(2-phenyl-2,4,6,7-tetrahydropyrazolo[4,3-c]pyridin-5-yl)ethanone]"
5,103 to 105 °C,"C[C@@H]1CN(c2ccc(S(C)(=O)=O)cn2)C[C@H](C)N1CC(=O)N1CCc2nn(-c3ccccc3)cc2C1 [compound 131, 2-[(2S,6R)-4-(5-methanesulphonylpyridin-2-yl)-2,6-dimethylpiperazin-1-yl]-1-(2-phenyl-2,4,6,7-tetrahydropyrazolo[4,3-c]pyridin-5-yl)ethanone]"
6,159 to 161 °C,"COc1ccc(-c2nc3c(s2)CN(C(=O)CN2[C@H](C)CN(c4ncc(F)cn4)C[C@@H]2C)CC3)cc1 [compound 132, 2-[(2S,6R)-4-(5-fluoropyrimidin-2-yl)-2,6-dimethylpiperazin-1-yl]-1-[2-(4-methoxyphenyl)-6,7-dihydro-4H-thiazolo[5,4-c]pyridin-5-yl]ethanone]"
7,70 to 73 °C,"COc1ccc(-c2nc3c(s2)CN(C(=O)CN2CC4CC2CN4c2ccc(C(F)(F)F)cn2)CC3)cc1 (stereo not shown) [compound 133, 1-[2-(4-methoxyphenyl)-6,7-dihydro-4H-thiazolo[5,4-c]pyridin-5-yl]-2-[5-(5-trifluoromethylpyridin-2-yl)-2,5-diazabicyclo[2.2.1]hept-2-yl]ethanone]"
8,231 to 237 °C,"O=C(CN1CCN(c2ccc(-c3ccn[nH]3)cn2)CC1)N1CCc2nc(-c3ccccc3)sc2C1 [compound 134, 1-(2-phenyl-6,7-dihydro-4H-thiazolo[5,4-c]pyridin-5-yl)-2-{4-[5-(2H-pyrazol-3-yl)pyridin-2-yl]piperazin-1-yl}ethanone]"
9,173 to 174 °C,"C[C@@H]1CN(c2ccc(-c3nccs3)cn2)C[C@H](C)N1CC(=O)N1CCc2nn(-c3ccccc3)cc2C1 [compound 135, 2-[(2S,6R)-2,6-dimethyl-4-(5-thiazol-2-ylpyridin-2-yl)piperazin-1-yl]-1-(2-phenyl-2,4,6,7-tetrahydropyrazolo[4,3-c]pyridin-5-yl)ethanone]"
10,147 to 150 °C,"C[C@@H]1CN(c2ccc(C(=O)O)cn2)C[C@H](C)N1CC(=O)N1CCc2nn(-c3ccccn3)cc2C1 [compound 140, 6-{(3S,5R)-3,5-dimethyl-4-[2-oxo-2-(2-pyridin-2-yl-2,4,6,7-tetrahydropyrazolo[4,3-c]pyridin-5-yl)ethyl]piperazin-1-yl}nicotinic acid]"
11,163 to 164 °C,"C[C@@H]1CN(c2cccnc2)C[C@H](C)N1CC(=O)N1CCc2nn(-c3ccncc3)cc2C1 [compound 141, 2-((2S,6R)-2,6-dimethyl-4-pyridin-3-ylpiperazin-1-yl)-1-(2-pyridin-4-yl-2,4,6,7-tetrahydropyrazolo[4,3-c]pyridin-5-yl)ethanone]"
12,180 to 181 °C,"C[C@@H]1CN(c2cccnc2)C[C@H](C)N1CC(=O)N1CCc2nn(-c3ccc(F)cn3)cc2C1 [compound 142, 2-((2S,6R)-2,6-dimethyl-4-pyridin-3-ylpiperazin-1-yl)-1-[2-(5-fluoropyridin-2-yl)-2,4,6,7-tetrahydropyrazolo[4,3-c]pyridin-5-yl]ethanone]"
13,196 to 197 °C,"C[C@@H]1CN(c2cccnc2)C[C@H](C)N1CC(=O)N1CCc2nn(-c3ccc(C(F)(F)F)cn3)cc2C1 [compound 143, 2-((2S,6R)-2,6-dimethyl-4-pyridin-3-ylpiperazin-1-yl)-1-[2-(5-trifluoromethylpyridin-2-yl)-2,4,6,7-tetrahydropyrazolo[4,3-c]pyridin-5-yl]ethanone]"
14,207 to 209 °C,"C[C@@H]1CN(c2cccnc2)C[C@H](C)N1CC(=O)N1CCc2nc(-c3ccccc3)[nH]c2C1 [compound 145, 2-((2S,6R)-2,6-dimethyl-4-pyridin-3-ylpiperazin-1-yl)-1-(2-phenyl-3,4,6,7-tetrahydroimidazo[4,5-c]pyridin-5-yl)ethanone]"
15,151 to 152 °C,"CCn1cc2c(n1)CCN(C(=O)CN1CCN(c3ccc(C(F)(F)F)cn3)C(=O)C1)C2 [compound 148, 4-[2-(2-ethyl-2,4,6,7-tetrahydropyrazolo[4,3-c]pyridin-5-yl)-2-oxoethyl]-1-(5-trifluoromethylpyridin-2-yl)piperazin-2-one]"
16,208 to 209 °C,"C[C@@H]1CN(c2ccc(C(=O)O)cn2)C[C@H](C)N1CC(=O)N1CCc2nn(-c3ccccc3)cc2C1 [compound 149, 6-{(3S,5R)-3,5-dimethyl-4-[2-oxo-2-(2-phenyl-2,4,6,7-tetrahydropyrazolo[4,3-c]pyridin-5-yl)ethyl]piperazin-1-yl}nicotinic acid]"

row,SMILES,melting point
1,"COC(=O)c1ccc(N2C3CCC2CN(CC(=O)N2CCc4nn(-c5ccccc5)cc4C2)C3)nc1 [compound 19, 6-{3-[2-oxo-2-(2-phenyl-2,4,6,7-tetrahydropyrazolo[4,3-c]pyridin-5-yl)ethyl]-3,8-diazabicyclo[3.2.1]oct-8-yl}nicotinic acid methyl ester]",204 to 205 °C
2,"O=C(O)c1ccc(N2C3CCC2CN(CC(=O)N2CCc4nn(-c5ccccc5)cc4C2)C3)nc1 [compound 24, 6-{3-[2-oxo-2-(2-phenyl-2,4,6,7-tetrahydropyrazolo[4,3-c]pyridin-5-yl)ethyl]-3,8-diazabicyclo[3.2.1]oct-8-yl}nicotinic acid]",202 to 206 °C
